For the test, the target named is BRD4 (BDI_K57-E168) (Homo sapiens, UniProt O60885). Briefly: TR-FRET bromodomain binding assay, BRD4 first bromodomain (BDI). As to conditions: mean Ki; 12 nM His tagged BRD4 (BDI_K57-E168), 100 nM Alexa647 probe; Ki calculated from IC50, probe Kd and probe concentration. As for the experimental part: A time-resolved fluorescence resonance energy transfer (TR-FRET) assay was used to determine the affinities of compounds of the Examples listed in Table 1 for each bromodomain of BRD4. […] An Alexa647-labeled BET-inhibitor was used as the fluorescent probe in the assay.
Compound dilution series were prepared in DMSO via an approximately 3-fold serial dilution. Compound dilutions were added directly into white, low-volume assay plates (Perkin Elmer Proxiplate 384 Plus# 6008280) using a Labcyte Echo in conjunction with Labcyte Access and Thermo Multidrop CombinL robotics. Compounds were then suspended in eight microliters (μL) of assay buffer (20 mM Sodium Phosphate, pH 6.0, 50 mM NaCl, 1 mM Ethylenediaminetetraacetic acid disodium salt dihydrate, 0.01% Triton X-100, 1 mM DL-Dithiothreitol) containing His-tagged bromodomain, Europium-conjugated anti-His antibody (Invitrogen PV5596) and Alexa-647-conjugated probe.
After a one-hour equilibration at room temperature, TR-FRET ratios were determined using an Envision multilabel plate reader (Ex 340, Em 495/520).
TR-FRET data were normalized to the means of 24 no-compound controls (“high”) and 8 controls containing 1 μM un-labeled probe (“low”). Percent inhibition was plotted as a function of compound concentration and the data were fit with the 4 parameter logistic equation to obtain IC50s. Inhibition constants (Ki) were calculated from the IC50s, probe Kd and probe concentration.

`CN1C(=O)[C@@]2(C[C@H]2c2cn(C)c(=O)c3[nH]c(C(=O)Nc4ccccc4)cc23)c2ccccc21` (racemic) [Example 8, rac-6-methyl-4-[(1R,2S)-1′-methyl-2′-oxo-1′,2′-dihydrospiro[cyclopropane-1,3′-indol]-2-yl]-7-oxo-N-phenyl-6,7-dihydro-1H-pyrrolo[2,3-c]pyridine-2-carboxamide]: the inhibition constant (Ki) is more than 13 µM.

`CN1C(=O)[C@@]2(C[C@H]2c2cn(C)c(=O)c3[nH]c(C(=O)NC4CC4)cc23)c2cc(F)ccc21` (single isomer, unassigned) [Example 18]: the Ki was more than 13 µM.

With `CN1C(=O)[C@@]2(C[C@H]2c2cn(C)c(=O)c3[nH]c(-c4cncn4C)cc23)c2ccccc21` (racemic) [Example 44, rac-(1R,2S)-1′-methyl-2-[6-methyl-2-(1-methyl-1H-imidazol-5-yl)-7-oxo-6,7-dihydro-1H-pyrrolo[2,3-c]pyridin-4-yl]spiro[cyclopropane-1,3′-indol]-2′(1H)-one], the inhibition constant (Ki) was 1.3 µM.

Take `CN1C(=O)[C@@]2(C[C@H]2c2cn(C)c(=O)c3[nH]c(-c4ccncn4)cc23)c2ccccc21` (racemic) [Example 55, rac-(1R,2S)-1′-methyl-2-[6-methyl-7-oxo-2-(pyrimidin-4-yl)-6,7-dihydro-1H-pyrrolo[2,3-c]pyridin-4-yl]spiro[cyclopropane-1,3′-indol]-2′(1H)-one]: the Ki is 3.42 µM.

Consider `CN1C(=O)[C@@]2(C[C@@H]2c2cn(C)c(=O)c3[nH]c(-c4cc[nH]n4)cc23)c2ccccc21` (racemic) [Example 38, rac-(1R,2R)-1′-methyl-2-[6-methyl-7-oxo-2-(1H-pyrazol-3-yl)-6,7-dihydro-1H-pyrrolo[2,3-c]pyridin-4-yl]spiro[cyclopropane-1,3′-indol]-2′(1H)-one], for which the inhibition constant Ki is more than 13 µM.

`CN1C(=O)[C@@]2(C[C@H]2c2cn(C)c(=O)c3[nH]ccc23)c2ccccc21` (racemic) [Example 30, rac-(1R,2S)-1′-methyl-2-(6-methyl-7-oxo-6,7-dihydro-1H-pyrrolo[2,3-c]pyridin-4-yl)spiro[cyclopropane-1,3′-indol]-2′(1H)-one]: the inhibition constant (Ki) is 3.44 µM.

For the compound `Cn1cc(C2CC23C(=O)N(CC(F)(F)F)c2ccccc23)c2cc(C(=O)NC3CC3)[nH]c2c1=O` (racemic) [Example 23, rac-N-cyclopropyl-6-methyl-7-oxo-4-[(1R,2S)-2′-oxo-′-(2,2,2-trifluoroethyl)-1′,2′-dihydrospiro[cyclopropane-1,3′-indol]-2-yl]-6,7-dihydro-1H-pyrrolo[2,3-c]pyridine-2-carboxamide], the Ki is more than 13 µM.

As for `CN1C(=O)[C@@]2(C[C@H]2c2cn(C)c(=O)c3[nH]c(-c4nccn4C)cc23)c2ccccc21` (racemic) [Example 41, rac-(1R,2S)-1′-methyl-2-[6-methyl-2-(1-methyl-1H-imidazol-2-yl)-7-oxo-6,7-dihydro-1H-pyrrolo[2,3-c]pyridin-4-yl]spiro[cyclopropane-1,3′-indol]-2′(1H)-one], the inhibitory constant (Ki) is 1.49 µM.

In the case of `Cn1cc([C@@H]2C[C@@]23C(=O)Nc2ccccc23)c2cc(C(=O)NC3CC3)[nH]c2c1=O` (single isomer, unassigned) [Example 21], the Ki was more than 13 µM.

Regarding `Cn1cc([C@H]2C[C@]23C(=O)Nc2ccccc23)c2cc(C(=O)NC3CC3)[nH]c2c1=O` (single isomer, unassigned) [Example 20], the inhibition constant (Ki) is 7.34 µM.

In the case of `CN1C(=O)[C@@]2(C[C@H]2c2cn(C)c(=O)c3[nH]c(C4CC4)cc23)c2ccccc21` (racemic) [Example 31, rac-(1R,2S)-2-(2-cyclopropyl-6-methyl-7-oxo-6,7-dihydro-1H-pyrrolo[2,3-c]pyridin-4-yl)-1′-methylspiro[cyclopropane-1,3′-indol]-2′(1H)-one], the Ki was 0.811 µM.

For `Cn1cc([C@H]2C[C@]23C(=O)N(CC(F)(F)F)c2ccccc23)c2cc(C(=O)NC3CC3)[nH]c2c1=O` [Example 24, N-cyclopropyl-6-methyl-7-oxo-4-[(1S,2R)-2′-oxo-′-(2,2,2-trifluoroethyl)-1′,2′-dihydrospiro[cyclopropane-1,3′-indol]-2-yl]-6,7-dihydro-1H-pyrrolo[2,3-c]pyridine-2-carboxamide], the Ki is 4.21 µM.

Turning to `CCN1C(=O)[C@@]2(C[C@H]2c2cn(C)c(=O)c3[nH]c(C(=O)NC4CC4)cc23)c2ccccc21` (racemic) [Example 22, rac-N-cyclopropyl-4-[(1R,2S)-1′-ethyl-2′-oxo-1′,2′-dihydrospiro[cyclopropane-1,3′-indol]-2-yl]-6-methyl-7-oxo-6,7-dihydro-1H-pyrrolo[2,3-c]pyridine-2-carboxamide], the Ki is 4 µM.

For `COCCN1C(=O)[C@@]2(C[C@H]2c2cn(C)c(=O)c3[nH]c(C(=O)NC4CC4)cc23)c2ccccc21` (racemic) [Example 27, rac-N-cyclopropyl-4-[(1R,2S)-1′-(2-methoxyethyl)-2′-oxo-1′,2′-dihydrospiro[cyclopropane-1,3′-indol]-2-yl]-6-methyl-7-oxo-6,7-dihydro-1H-pyrrolo[2,3-c]pyridine-2-carboxamide], the Ki was more than 13 µM.

In the case of `CN1C(=O)[C@]2(C[C@@H]2c2cn(C)c(=O)c3[nH]c(-c4ccnc(C(F)(F)F)c4)cc23)c2ccccc21` [Example 52, (1S,2R)-1′-methyl-2-{6-methyl-7-oxo-2-[2-(trifluoromethyl)pyridin-4-yl]-6,7-dihydro-1H-pyrrolo[2,3-c]pyridin-4-yl}spiro[cyclopropane-1,3′-indol]-2′(1H)-one], the inhibitory constant (Ki) is more than 13 µM.

Take `CN1C(=O)[C@@]2(C[C@H]2c2cn(C)c(=O)c3[nH]c(C(=O)NC4CC4)cc23)c2ccc(Cl)cc21` (racemic) [Example 12, rac-4-[(1R,2S)-6′-chloro-1′-methyl-2′-oxo-1′,2′-dihydrospiro[cyclopropane-1,3′-indol]-2-yl]-N-cyclopropyl-6-methyl-7-oxo-6,7-dihydro-1H-pyrrolo[2,3-c]pyridine-2-carboxamide]: the inhibition constant (Ki) was 4.53 µM.

As for `CN1C(=O)[C@@]2(C[C@H]2c2cn(C)c(=O)c3[nH]c(-c4cccnc4)cc23)c2ccccc21` [Example 49, (1R,2S)-1′-methyl-2-[6-methyl-7-oxo-2-(pyridin-3-yl)-6,7-dihydro-1H-pyrrolo[2,3-c]pyridin-4-yl]spiro[cyclopropane-1,3′-indol]-2′(1H)-one], the inhibition constant Ki is 4.14 µM.

As for `CN1C(=O)[C@@]2(C[C@H]2c2cn(C)c(=O)c3[nH]c(-c4ccccn4)cc23)c2ccccc21` (racemic) [Example 45, rac-(1R,2S)-1′-methyl-2-[6-methyl-7-oxo-2-(pyridin-2-yl)-6,7-dihydro-1H-pyrrolo[2,3-c]pyridin-4-yl]spiro[cyclopropane-1,3′-indol]-2′(1H)-one], the Ki was more than 13 µM.

With `COc1ccc(NC(=O)c2cc3c([C@@H]4C[C@@]45C(=O)N(C)c4ccccc45)cn(C)c(=O)c3[nH]2)cc1` (racemic) [Example 9, rac-N-(4-methoxyphenyl)-6-methyl-4-[(1R,2S)-1′-methyl-2′-oxo-1′,2′-dihydrospiro[cyclopropane-1,3′-indol]-2-yl]-7-oxo-6,7-dihydro-1H-pyrrolo[2,3-c]pyridine-2-carboxamide], the Ki was 4.68 µM.

With `CN1C(=O)[C@@]2(C[C@H]2c2cn(C)c(=O)c3[nH]c(C4CN(C(=O)OC(C)(C)C)C4)cc23)c2ccccc21` (racemic) [Example 32, rac-tert-butyl 3-{6-methyl-4-[(1R,2S)-1′-methyl-2′oxo-1′,2′-dihydrospiro[cyclopropane-1,3′-indol]-2-yl]-7-oxo-6,7-dihydro-1H-pyrrolo [2,3-c]pyridin-2-yl}azetidine-1-carboxylate], the Ki is 2.41 µM.

In the case of `CCNC(=O)c1cc2c([C@@H]3C[C@@]34C(=O)N(C)c3ccccc34)cn(C)c(=O)c2[nH]1` (racemic) [Example 1, rac-N-ethyl-6-methyl-4-[(1R,2S)-1′-methyl-2′-oxo-1′,2′-dihydrospiro[cyclopropane-1,3′-indol]-2-yl]-7-oxo-6,7-dihydro-1H-pyrrolo[2,3-c]pyridine-2-carboxamide], the inhibition constant (Ki) was 6.08 µM.

As to `CN1C(=O)[C@@]2(C[C@H]2c2cn(C)c(=O)c3[nH]c(C(=O)NC4CC4)cc23)c2cccc(Br)c21` (racemic) [Example 29, rac-4-[(1R,2S)-7′-bromo-1′-methyl-2′-oxo-1′,2′-dihydrospiro[cyclopropane-1,3′-indol]-2-yl]-N-cyclopropyl-6-methyl-7-oxo-6,7-dihydro-1H-pyrrolo[2,3-c]pyridine-2-carboxamide], the Ki was 4.84 µM.

In the case of `CN1C(=O)[C@@]2(C[C@H]2c2cn(C)c(=O)c3[nH]c(C(=O)NC4CC4)cc23)c2ccc(OC(F)(F)F)cc21` (racemic) [Example 15, rac-N-cyclopropyl-6-methyl-4-[(1R,2S)-1′-methyl-2′-oxo-6′-(trifluoromethoxy)-1′,2′-dihydrospiro[cyclopropane-1,3′-indol]-2-yl]-7-oxo-6,7-dihydro-1H-pyrrolo[2,3-c]pyridine-2-carboxamide], the inhibition constant (Ki) was 3.63 µM.

Broadly, the Ki is a measure of affinity in units of concentration, obtained from inhibition or displacement.

The values above are taken from patent publication US20210130346A1, “Bromodomain Inhibitors” (AbbVie Inc., priority 2017, published 2021).
